Test results taken from patent US20230192677A1, “CYP11A1 INHIBITORS” (ORION CORPORATION, priority 2020, published 2023).

Assays:
[1] = target: recombinant human cytochrome P450 (CYP) CYP3A4 enzyme (Homo sapiens, UniProt P08684); experiment: Formation of reactive metabolites, trapping with GSH, KCN and SCA; conditions: recombinant human CYP3A4, NADPH, 1 hour, pH 7.4
Protocol: Formation of reactive metabolites was studied as described in Grillo, M., Expert Opin. […] (2015), 11(8):1281-1302 by incubating test compounds with recombinant human cytochrome P450 (CYP) CYP3A4 enzyme in the presence of cofactor NADPH and trapping agents glutathione (GSH), potassium cyanide (KCN) and semicarbazide (SCA).
Compounds were dissolved in DMSO and diluted in phosphate buffer (pH 7.4) to obtain the final incubation concentration 1 or 10 μM. Compounds were incubated with one trapping agent (mixture of unlabelled and ^13C^15N-labelled trapper 1:1) at a time with cofactor NADPH (actual samples) and without NADPH (control samples). Incubation time was 1 hour. Samples at timepoint 0 min (before incubation) and 60 min (after incubation) were analysed using ultra high-pressure liquid chromatography (UHPLC) coupled with high-resolution mass spectrometry (HRMS). Tentative identification of trapped metabolites was based on accurate masses of protonated molecules and product ion spectra of found metabolites and accurate mass differences between unlabelled and labelled trapping agents reacted with reactive metabolites.
The metabolites were classified as “major” if the peak area after incubation was over 10% of parent peak area before incubation. If peak area was between 1% and 10%, metabolites were classified as “minor” and if peak area was less than 1%, metabolite was classified as “trace”.

CYP11A1 = target: T1, CYP11A1 (Homo sapiens, UniProt P05108); experiment: CYP11A1 inhibition, isocaproic acid release assay (IARA) in H295R cells; assay type: cell-based; conditions: human H295R adrenocortical carcinoma cell line, three days, 3 nM [24,25-3H]-labelled cholesterol; read-out: IC50 on CYP11A1 inhibition (Group)
T1 construct: human H295R adrenocortical carcinoma cell line was used as source of enzyme; endogenous in cells; host or cells: H295R human adrenocortical carcinoma cells
T1 sequence (P05108 40-521): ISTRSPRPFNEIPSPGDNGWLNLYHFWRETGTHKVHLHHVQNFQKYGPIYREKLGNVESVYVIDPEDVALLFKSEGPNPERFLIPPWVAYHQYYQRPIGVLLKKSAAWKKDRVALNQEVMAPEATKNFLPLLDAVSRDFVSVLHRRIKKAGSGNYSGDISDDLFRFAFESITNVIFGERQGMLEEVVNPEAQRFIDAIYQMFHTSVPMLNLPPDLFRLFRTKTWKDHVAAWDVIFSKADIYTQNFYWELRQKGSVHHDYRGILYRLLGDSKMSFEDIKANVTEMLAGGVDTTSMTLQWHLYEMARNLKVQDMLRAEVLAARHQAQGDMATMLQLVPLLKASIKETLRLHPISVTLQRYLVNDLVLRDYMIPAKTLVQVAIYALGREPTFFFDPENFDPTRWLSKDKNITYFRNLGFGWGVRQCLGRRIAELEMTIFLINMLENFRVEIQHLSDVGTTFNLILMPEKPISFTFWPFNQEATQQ
Protocol: The ability of the test compounds to inhibit conversion of cholesterol to pregnenolone and isocaproic acid was measured by modification of isocaproic acid release assay (IARA) described by Ruangwises et al. (Biology of Reproduction 1991; 45(1):143-50) except that human H295R adrenocortical carcinoma cell line was used as source of enzyme and extraction was done with dextran-coated charcoal suspension (Isomaa, V. et al., Endocrinology 1982; 111(3):833-843). […] To determine the half maximal inhibitory concentration (IC50) of the test compounds on CYP11A1 inhibition, the cells were treated for three days with increasing concentrations of the test compounds in the presence of 3 nM [24,25-3H]-labelled cholesterol (American Radiolabelled Chemicals). The final DMSO concentration was 1%. Cell culture medium was extracted with dextran-coated charcoal suspension and the radiolabelled isocaproic acid was determined by mixing 100 μl of supernatant fraction in 200 μl of scintillation fluid (OptiPhase SuperMix, Perkin Elmer). Radioactivity was measured using a Microbeta scintillation counter (1450 MicroBeta Trilux, Wallac). All the test compounds were studied at 10 concentrations in duplicates.

Sequence of recombinant human cytochrome P450 (CYP) CYP3A4 enzyme (P08684 whole entry): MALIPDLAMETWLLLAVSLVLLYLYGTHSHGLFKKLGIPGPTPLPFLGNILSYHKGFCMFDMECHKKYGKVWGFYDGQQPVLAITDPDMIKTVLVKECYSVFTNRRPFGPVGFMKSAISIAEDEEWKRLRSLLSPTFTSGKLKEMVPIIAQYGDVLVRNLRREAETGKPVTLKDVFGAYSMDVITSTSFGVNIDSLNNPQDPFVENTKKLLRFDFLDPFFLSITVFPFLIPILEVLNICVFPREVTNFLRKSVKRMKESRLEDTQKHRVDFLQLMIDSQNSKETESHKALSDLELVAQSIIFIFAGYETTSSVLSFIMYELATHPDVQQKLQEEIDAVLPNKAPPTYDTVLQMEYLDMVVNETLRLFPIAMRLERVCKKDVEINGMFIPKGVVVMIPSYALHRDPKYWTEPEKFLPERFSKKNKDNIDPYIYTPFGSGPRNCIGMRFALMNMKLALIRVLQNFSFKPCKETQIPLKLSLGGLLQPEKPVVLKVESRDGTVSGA

| SMILES | Number of CN trapped metabolites ([1]; test compound 10 μM) | Number of GSH trapped metabolites ([1]; test compound 10 μM) | Number of SCA trapped metabolites ([1]; test compound 10 μM) | IC50 (CYP11A1) [nM] | Number of CN trapped metabolites ([1]; test compound 1 μM) | Number of GSH trapped metabolites ([1]; test compound 1 μM) | Number of SCA trapped metabolites ([1]; test compound 1 μM) |
| --- | --- | --- | --- | --- | --- | --- | --- |
| C[C@H](c1cc(=O)c(OCC2CCN(S(C)(=O)=O)CC2)co1)N1Cc2ccccc2[C@H]2C[C@H]21 (relative stereo) [Compound 24b, 5-((1-(Methylsulfonyl)piperidin-4-yl)methoxy)-2-((R*)-1-((1aR*,7bR*)-1,1a,3,7b-tetrahydro-2H-cyclopropa[c]isoquinolin-2-yl)ethyl)-4H-pyran-4-one] | 2 (trace) | 0 | 0 | – | – | – | – |
| CS(=O)(=O)N1CCC(COc2coc(CN3Cc4ccc(-c5nnco5)cc4C3)cc2=O)CC1 [Compound 1, 2-((5-(1,3,4-Oxadiazol-2-yl)isoindolin-2-yl)methyl)-5-(((methylsulfonyl)piperidin-4-yl)methoxy)-4H-pyran-4-one] | 0 | 0 | 2 (trace) | 101 to 200 | – | – | – |
| CS(=O)(=O)N1CCC(COc2coc(CN3Cc4ccc(-c5cnco5)cc4C3)cc2=O)CC1 [Compound 2, 5-((1-(Methylsulfonyl)piperidin-4-yl)methoxy)-2-((5-(oxazol-5-yl)isoindolin-2-yl)methyl)-4H-pyran-4-one] | 0 | 0 | 3 (trace) | 101 to 200 | – | – | – |
| CS(=O)(=O)N1CCC(COc2coc(CN3Cc4ccc(-n5cccn5)cc4C3)cc2=O)CC1 [Compound 7, 2-((5-(1H-Pyrazol-1-yl)isoindolin-2-yl)methyl)-5-((1-(methylsulfonyl)piperidin-4-yl)methoxy)-4H-pyran-4-one] | 0 | 0 | 1 (trace) | 101 to 200 | – | – | – |
| CS(=O)(=O)N1CCC(COc2coc(CN3Cc4ccc(-c5ncon5)cc4C3)cc2=O)CC1 [Compound 8, 2-((5-(1,2,4-Oxadiazol-3-yl)isoindolin-2-yl)methyl)-5-((1-(methylsulfonyl)-piperidin-4-yl)methoxy)-4H-pyran-4-one] | 0 | 1 (trace) | – | 101 to 200 | – | – | – |
| CS(=O)(=O)c1cc(CN2Cc3ccc(-c4nnco4)cc3C2)ccc1OCC1CCN(S(C)(=O)=O)CC1 [Compound 10, 2-(2-(3-(Methylsulfonyl)-4-((1-(methylsulfonyl)piperidin-4-yl)methoxy)benzyl)-isoindolin-5-yl)-1,3,4-oxadiazole] | 1 (trace) | 0 | 2 (trace) | 101 to 200 | – | – | – |
| CC(c1cc(=O)c(OCC2CCN(S(C)(=O)=O)CC2)co1)N1Cc2ccc(-c3ncco3)cc2C1 (centres unmarked) [Compound 17b, 5-((1-(Methylsulfonyl)piperidin-4-yl)methoxy)-2-(1-(5-(oxazol-2-yl)isoindolin-2-yl)ethyl)-4H-pyran-4-one] | 0 | 0 | 1 (trace) | – | – | – | – |
| CC(C)(C)OC(=O)N1CC2(CC(COc3coc(CN4CCc5ccccc5C4)cc3=O)C2)C1 [Compound 30, tert-Butyl 6-(((6-((3,4-dihydroisoquinolin-2(1H)-yl)methyl)-4-oxo-4H-pyran-3-yl)oxy)methyl)-2-azaspiro[3.3]heptane-2-carboxylate] | – | – | – | 201 to 2000 | 0 | 0 | 0 |
| CC(=O)c1ccc2c(c1)CN(Cc1cc(=O)c(OCC3CCN(S(C)(=O)=O)CC3)co1)C2 [Compound 89, 2-((5-Acetylisoindolin-2-yl)methyl)-5-((1-(methylsulfonyl)piperidin-4-yl)-methoxy)-4H-pyran-4-one] | 0 | 0 | 1 (trace) | < 100 | – | – | – |
| C/C(=N\O)c1ccc2c(c1)CN(Cc1cc(=O)c(OCC3CCN(S(C)(=O)=O)CC3)co1)C2 [Compound 90, (E)-2-((5-(1-(Hydroxyimino)ethyl)isoindolin-2-yl)methyl)-5-((1-(methylsulfonyl)piperidin-4-yl)methoxy)-4H-pyran-4-one] | 0 | 0 | 1 (trace) | 101 to 200 | – | – | – |
| CC(O)c1ccc(COc2ccc(CN3Cc4ccccc4C3)cc2S(C)(=O)=O)cc1 (centres unmarked) [Compound 92b, 1-(4-((4-(Isoindolin-2-ylmethyl)-2-(methylsulfonyl)phenoxy)methyl)phenyl)-ethanol] | – | – | – | < 100 | – | – | – |
| CC(O)c1ccc2c(c1)CN(Cc1cc(=O)c(OCC3CCN(S(C)(=O)=O)CC3)co1)C2 (centres unmarked) [Compound 93, 2-((5-(1-Hydroxyethyl)isoindolin-2-yl)methyl)-5-((1-(methylsulfonyl)piperidin-4-yl)methoxy)-4H-pyran-4-one] | 0 | 0 | 3 (trace) | 201 to 2000 | – | – | – |
| CC(O)C1CCC(COc2ccc(CN3Cc4ccccc4C3)cc2S(C)(=O)=O)CC1 (centres unmarked) [Compound 94, 1-(4-((4-(Isoindolin-2-ylmethyl)-2-(methylsulfonyl)phenoxy)methyl)cyclohexyl)ethan-1-ol] | – | – | – | 201 to 2000 | – | – | – |
| CS(=O)(=O)c1cc(CN2Cc3ccccc3C2)ccc1OCc1ccc([S@](C)(=N)=O)cc1 [Compound 95, (R)-Imino(4-((4-(isoindolin-2-ylmethyl)-2-(methylsulfonyl)phenoxy)methyl)-phenyl)(methyl)-λ^6-sulfanone] | – | – | – | 101 to 200 | – | – | – |
| CS(=O)(=O)c1cc(CN2Cc3ccccc3C2)ccc1OCc1ccc([S@@](C)(=N)=O)cc1 [Compound 96, (S)-Imino(4-((4-(isoindolin-2-ylmethyl)-2-(methylsulfonyl)phenoxy)methyl)-phenyl)(methyl)-λ^6-sulfanone] | – | – | – | < 100 | – | – | – |
| CC[S@](=N)(=O)c1ccc(COc2ccc(CN3Cc4ccccc4C3)cc2S(C)(=O)=O)cc1 [Compound 97, (S)-Ethyl(imino)(4-((4-(isoindolin-2-ylmethyl)-2-(methylsulfonyl)phenoxy)-methyl)phenyl)-λ^6-sulfanone] | – | – | – | < 100 | – | – | – |
| CC[S@@](=N)(=O)c1ccc(COc2ccc(CN3Cc4ccccc4C3)cc2S(C)(=O)=O)cc1 [Compound 98, (R)-Ethyl(imino)(4-((4-(isoindolin-2-ylmethyl)-2-(methylsulfonyl)phenoxy)-methyl)phenyl)-λ^6-sulfanone] | – | – | – | < 100 | – | – | – |
| CS(=O)(=O)N1CCC(COc2coc(CN3Cc4ccccc4C4(CC4)C3)cc2=O)CC1 [Compound 103, 2-((1′H-Spiro[cyclopropane-1,4′-isoquinolin]-2′(3′H)-yl)methyl)-5-((1-(methyl-sulfonyl)piperidin-4-yl)methoxy)-4H-pyran-4-one] | – | – | – | 201 to 2000 | – | – | – |
| CC(C)(O)c1ccc(COc2coc(CN3Cc4ccccc4C4(CCCC4)C3)cc2=O)cc1 [Compound 104, 2-((1′H-Spiro[cyclopentane-1,4′-isoquinolin]-2′(3′H)-yl)methyl)-5-((4-(2-hydroxypropan-2-yl)benzyl)oxy)-4H-pyran-4-one] | – | – | – | 101 to 200 | – | – | – |
| CS(=O)(=O)c1cc(CN2Cc3cccc(F)c3C2)ccc1OCC1CCN(S(C)(=O)=O)CC1 [Compound 105, 4-Fluoro-2-(3-(methylsulfonyl)-4-((1-(methylsulfonyl)piperidin-4-yl)methoxy)-benzyl)isoindoline] | – | – | – | < 100 | – | – | – |
